In the supplement of paper PMC7840683:
± gives the standard deviation of the averaged measurements.

System: HepaRG
Experiment: LDH release cytotoxicity, % of total lysis control; higher = more cytotoxic
Details: 48 h
Procedure, shortened: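 On collagen I-coated 96-well plates, single-lot HepaRG cells were exposed for 48 h, in duplicate, to eight-point half-log series of test chemicals beginning at 100 µM. The exposure medium was serum-free induction medium with 0.5% DMSO, and total lysis wells got 0.1% Triton X. Resorufin fluorescence from the CytoTox-ONE reaction, read on a Tecan Safire, reported LDH in 50 µL of spent medium. Percent cytotoxicity came from normalization to on-plate vehicle and total lysis controls, averaged over the duplicates.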

| Compound | LDH release cytotoxicity (0.03162 µM) [%] | LDH release cytotoxicity (0.1 µM) [%] | LDH release cytotoxicity (0.3162278 µM) [%] | LDH release cytotoxicity (1 µM) [%] | LDH release cytotoxicity (3.16228 µM) [%] | LDH release cytotoxicity (10 µM) [%] | LDH release cytotoxicity (31.6228 µM) [%] | LDH release cytotoxicity (100 µM) [%] | LDH release cytotoxicity (0.031623 µM) [%] | LDH release cytotoxicity (0.316228 µM) [%] | LDH release cytotoxicity (0.032888 µM) [%] | LDH release cytotoxicity (0.104 µM) [%] | LDH release cytotoxicity (0.328877 µM) [%] | LDH release cytotoxicity (1.04 µM) [%] | LDH release cytotoxicity (3.28877 µM) [%] | LDH release cytotoxicity (10.4 µM) [%] | LDH release cytotoxicity (32.8877 µM) [%] | LDH release cytotoxicity (104 µM) [%] |
| --- | --- | --- | --- | --- | --- | --- | --- | --- | --- | --- | --- | --- | --- | --- | --- | --- | --- | --- |
| Nc1ccccc1N [1,2-Phenylenediamine] | -3.74 ± 0.12 | -3.27 ± 0.9 | -2.8 ± 0.61 | -1.88 ± 0.13 | -3.1 ± 0.2 | -2.74 ± 0.21 | -2.23 ± 1.2 | -1.05 ± 2.2 |  |  |  |  |  |  |  |  |  |  |
| CC(O)CO (configuration not stated) [1,2-Propylene glycol] | -1.3 ± 0.42 | -0.939 ± 1.1 | -1.49 ± 0.33 | -1.94 ± 0.42 | -1.55 ± 0.095 | -1.06 ± 0.055 | -1.08 ± 0.23 | 0.548 ± 0.21 |  |  |  |  |  |  |  |  |  |  |
| Cc1cc(C)cc(C)c1 [1,3,5-Trimethylbenzene] | -1.84 ± 0.57 | -1.84 ± 0.86 | -2.21 ± 0.96 | -2.65 ± 0.24 | -2.52 ± 0.57 | -1.42 ± 0.71 | -0.727 ± 0.4 | 1.41 ± 0.37 |  |  |  |  |  |  |  |  |  |  |
| Nc1cccc(N)c1 [1,3-Benzenediamine] | -1.18 ± 0.7 | -2.11 ± 0.27 | -1.93 ± 0.12 | -1.36 ± 0.52 | -1 ± 0.48 | -0.806 ± 0.47 | -1.17 ± 0.023 | 0.323 ± 1.3 |  |  |  |  |  |  |  |  |  |  |
| O=C(O)c1cccc(C(=O)O)c1 [1,3-Benzenedicarboxylic acid] | -2.12 ± 0.44 | -1.69 ± 0.34 | -1.63 ± 0.21 | -2.28 ± 0.37 | -2.24 ± 0.28 | -1.69 ± 0.35 | 0.0627 ± 0.62 | 4.89 ± 0.58 |  |  |  |  |  |  |  |  |  |  |
| CC(O)CCO (configuration not stated) [1,3-Butanediol] | -2.25 ± 1.4 | -2.15 ± 1.1 | -2.36 ± 0.29 | -2.52 ± 0.74 | -2.18 ± 0.92 | -2.33 ± 0.35 | -1.67 ± 0.8 | -0.781 ± 0.99 |  |  |  |  |  |  |  |  |  |  |
| CC1(C)C(=O)N(Br)C(=O)N1Br [1,3-Dibromo-5,5-dimethylhydantoin] | -0.925 ± 1.3 | -0.284 ± 1.3 | -0.732 ± 0.032 | -1.11 ± 0.88 | -0.698 ± 0.06 | 0.338 ± 1.5 | -0.0587 ± 0.89 | 0.735 ± 0.36 |  |  |  |  |  |  |  |  |  |  |
| OC(CCl)CCl [1,3-Dichloro-2-propanol] | -0.194 ± 0.51 | -0.771 ± 0.2 | -1.03 ± 0.57 | -0.871 ± 0.15 | -0.223 ± 0.23 | -0.32 ± 0.6 | 0.161 ± 0.38 | -0.702 ± 0.99 |  |  |  |  |  |  |  |  |  |  |
| CC1(C)C(=O)N(Cl)C(=O)N1Cl [1,3-Dichloro-5,5-dimethylhydantoin] | 0.112 ± 0.0031 | -1.567 ± 0.014 | -0.979 ± 0.12 | -0.604 ± 0.23 | -0.443 ± 0.098 | -0.243 ± 0.15 | 1.54 ± 2 | 0.626 ± 0.89 |  |  |  |  |  |  |  |  |  |  |
| Clc1cccc(Cl)c1 [1,3-Dichlorobenzene] | -0.441 ± 1.9 | -1.62 ± 0.022 | -0.906 ± 0.34 | -1.05 ± 0.054 | -1.07 ± 0.023 | 0.199 ± 1.1 | 3.191 ± 0.028 | 25.9 ± 0.28 |  |  |  |  |  |  |  |  |  |  |
| CC(C)c1cccc(C(C)C)c1 [1,3-Diisopropylbenzene] |  | -2.55 ± 1.5 |  | -4.25 ± 0.7 | -3.82 ± 0.32 | -2.51 ± 1.5 | -1.16 ± 0.34 | 0.451 ± 1.2 | -1.99 ± 0.73 | -2.42 ± 1.3 |  |  |  |  |  |  |  |  |
| N=C(Nc1ccccc1)Nc1ccccc1 [1,3-Diphenylguanidine] | -0.803 ± 1 | -2.15 ± 0.34 | -1.51 ± 0.42 | -1.87 ± 1.8 | -1.59 ± 0.016 | -1.1 ± 0.56 | -1.1 ± 0.68 | 0.505 ± 0.92 |  |  |  |  |  |  |  |  |  |  |
| O=S1(=O)CCCO1 [1,3-Propane sultone] | -0.997 ± 0.28 | -2.2 ± 0.45 | -1.51 ± 0.54 | -1.38 ± 0.031 | -1.5 ± 0.31 | -1.53 ± 0.35 | -0.817 ± 0.19 | -0.0166 ± 1.5 |  |  |  |  |  |  |  |  |  |  |
| Clc1ccc(Cl)cc1 [1,4-Dichlorobenzene] | -0.401 ± 1.1 | -1.22 ± 0.19 | -1.55 ± 0.4 | -0.354 ± 1.7 | -0.734 ± 0.3 | -0.586 ± 1.3 | 0.224 ± 1.5 | 5.07 ± 3.4 |  |  |  |  |  |  |  |  |  |  |
| C1=CCCC=CCCC=CCC1 [1,5,9-Cyclododecatriene] |  |  |  |  |  |  |  |  |  |  | 0.325 ± 0.27 | -1.08 ± 0.16 | -2.13 ± 1.5 | -1.59 ± 0.41 | -1.09 ± 0.33 | -1.273 ± 0.012 | -1.4 ± 0.08 | 0.633 ± 0.4 |
| Nc1cccc2c(N)cccc12 [1,5-Naphthalenediamine] | -0.228 ± 0.2 | -1.23 ± 0.16 | -1.58 ± 0.12 | -2.39 ± 0.034 | -1.95 ± 0.3 | -1.12 ± 0.45 | -1.51 ± 0.7 | 0.44 ± 0.38 |  |  |  |  |  |  |  |  |  |  |
| O=C=NCCCCCCN=C=O [1,6-Diisocyanatohexane] | -1.38 ± 0.69 | -0.852 ± 1.4 | 0.3 ± 0.43 | -0.656 ± 0.29 | 0.0821 ± 0.041 | 0.975 ± 0.72 | 0.748 ± 0.51 | 0.578 ± 0.58 |  |  |  |  |  |  |  |  |  |  |
| Oc1ccccc1O [1,2-Benzenediol] | -1.86 ± 1.3 | -1.713 ± 0.01 | -1.94 ± 0.18 | -2.41 ± 0.4 | -2.9 ± 0.69 | -2.31 ± 0.29 | -1.42 ± 0.88 | -0.0267 ± 0.61 |  |  |  |  |  |  |  |  |  |  |
| CC1(C)C(=O)NC(=O)N1CO [1-(Hydroxymethyl)-5,5-dimethylhydantoin] | -1.56 ± 1.1 | -1.1 ± 1.7 | -1.77 ± 0.95 | -1.77 ± 0.48 | -1.55 ± 0.76 | -1.08 ± 0.36 | -0.999 ± 0.29 | 0.312 ± 0.47 |  |  |  |  |  |  |  |  |  |  |
